Our source for the EC50 and GI50 values is patent US20070099877A1, “N-aryl-thienopyrimidin-4-amines and analogs as activators of caspases and inducers of apoptosis and the use thereof” (Cytovia, Inc., priority 2005, published 2007).

Counter-ions that a name gives are not always drawn. Like-named read-outs stand apart in the source and are kept apart here.

A word on the EC50: it is the concentration that produces a half-maximal response. A word on the GI50: it is the concentration that inhibits growth by half.

Holding throughout (format): cell-based
For test [1], the system named is human breast cancer cell line T-47D. In words: Caspase cascade activation (DEVD-R110 fluorogenic substrate) in T-47D cells. A digest of the protocol: (§1)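 Cells were exposed to compound at 0.016 to 10 μM final for 24 h or 48 h at 37 °C. They were then lysed with 14 μM N-(Ac-DEVD)-N′-ethoxycarbonyl-R110 in lysolecithin/DTT/PIPES buffer pH 7.2 for 3 h at room temperature (ex 485/em 530 nm). EC50 came from a sigmoidal fit of net RFU relative to untreated control.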

Test [2] concerns human lung cancer cell line H1299. Put plainly: Caspase cascade activation in H1299 cells. Particulars: NCI-H1299, 24 h, read-out: Caspase activation Potency EC50 H1299 (24 h). The essentials: as §1
The test system of test [3] is human hepatocellular carcinoma cell line SNU398. Put plainly: Caspase cascade activation in SNU398 cells. Particulars: read-out: Caspase activation Potency EC50 SNU398 (48 h). A digest of the protocol: as §1
The subject of test [4] is human colon carcinoma cell line HCT116. In words: Caspase cascade activation in HCT116 cells. Particulars: read-out: Caspase activation Potency EC50 HCT116 (48 h). The essentials:
as §1

For test [5], the system named is human breast cancer cell line T-47D. Put plainly: Inhibition of cell proliferation (GI50, CellTiter-Glo) in T-47D cells. The settings on record: Table III, T47D cells, 48 h, read-out: GI50 in Cancer Cells T47D. The procedure: (§2) Human breast cancer cell lines T-47D, MX-1 and MDAMB435, human colon cancer cell line HT29, and human lung cancer cell line H1299 were grown and harvested as in Example 75. An aliquot of […] of cells (4.4×10^4 cells/mL) was added to a well of a 96-well microtiter plate containing 5 μL of a 10% DMSO in RPMI-1640 media solution containing 10 nM to 100 μM of N-(2,5-dimethoxyphenyl)-2-methylthieno[3,2-d]pyrimidin-4-amine (1 nM to 10 μM final). An aliquot of 45 μL of cells was added to a well of a 96-well microtiter plate containing 5 μL of a 10% DMSO in RPMI-1640 media solution without compound as the control sample for maximal cell proliferation (Lmax). The samples were mixed by agitation and then incubated at 37° C. for 48 h in a 5% CO2-95% humidity incubator. After incubation, the samples were removed from the incubator and 25 μL of CellTiter-Glo™ reagent (Promega) was added. The samples were mixed by agitation and incubated at room temperature for 10-15 min. Plates were then read using a luminescent plate reader (Model SPECTRAfluor Plus, Tecan) to give Ltest values.
(§3) Baseline for GI50 (dose for 50% inhibition of cell proliferation) of initial cell numbers was determined by adding an aliquot of 45 μL of cells or 45 μL of media, respectively, to wells of a 96-well microtiter plate containing 5 μL of a 10% DMSO in RPMI-1640 media solution. The samples were mixed by agitation and then incubated at 37° C. for 0.5 h in a 5% CO2-95% humidity incubator. After incubation, the samples were removed from the incubator and 25 μL of CellTiter-Glo™ reagent (Promega) was added. The samples were mixed by agitation and incubated at 37° C. for 10-15 min at room temperature in a 5% CO2-95% humidity incubator. Fluorescence was read as above, (LStart) defining luminescence for initial cell number used as baseline in GI50 determinations.
(§4) GI50 (dose for 50% inhibition of cell proliferation) is the concentration where [(LTest−Lstart)/(LMax−Lstart)]=0.5.

For test [6], the system named is human breast cancer cell line MX-1. Put plainly: Inhibition of cell proliferation (GI50) in MX-1 cells. The settings on record: Table III, MX1 cells, 48 h, read-out: GI50 in Cancer Cells MX1. The procedure: as §2, §3, §4
In test [7] the test system is human breast cancer cell line MDAMB435. In words: Inhibition of cell proliferation (GI50) in MDAMB435 cells. Particulars: MDA-MB-435, Table III, 48 h, read-out: GI50 in Cancer Cells MDAMB435. The procedure:
as §2, §3, §4

For test [8], the system named is human lung cancer cell line H1299. Put plainly: Inhibition of cell proliferation (GI50) in H1299 cells. Particulars: NCI-H1299, Table III, 48 h. The procedure:
as §2, §3, §4

Test [9] deals with human colon cancer cell line HT29. In words: Inhibition of cell proliferation (GI50) in HT29 cells. Particulars: HT-29, Table III, 48 h. The procedure:
as §2, §3, §4

Test [10] relates to human lymphoma cell line Raji. Put plainly: Caspase cascade activation in Raji cells. Particulars: 48 h, read-out: Caspase Activation Potency EC50 Raji.
Test [11] relates to human B cell lymphoblastoid cell line Ramos. Put plainly: Caspase cascade activation in Ramos cells. The settings on record: 48 h, read-out: Caspase Activation Potency EC50 Ramos.
Test [12] has as its system human Burkitt's lymphoma cell line Namalwa. Put plainly: Caspase cascade activation in Namalwa cells. Particulars: Burkitts lymphoma cell, 48 h, read-out: Caspase Activation Potency EC50 Namalwa.
In test [13] the test system is breast cancer cell line SKBR3. Put plainly: Caspase cascade activation in SKBR3 cells. Particulars: Homo sapiens, SK-BR-3, 48 h, read-out: Caspase Activation Potency EC50 SKBR3.

With `COc1ccc(OC)c(Nc2nc(C)nc3ccsc23)c1` [Example 1, N-(2,5-Dimethoxyphenyl)-2-methylthieno[3,2-d]pyrimidin-4-amine], the EC50 turned out to be 0.065 µM in test [1] (Homo sapiens, T47D, 24 h, T47D cells, 24 h, read-out: Caspase activation Potency EC50 T47D (24 h)); 0.04 µM in test [1] (Homo sapiens, T47D, 48 h, T-47D cells, 48 h, read-out: Caspase activation Potency EC50 T-47D (48 h)); 1.55 µM in test [2]; 0.557 µM in test [3] (Homo sapiens, SNU-398, 48 h); 2.33 µM in [4] (Homo sapiens, HCT-116, 48 h). In addition, the GI50 stood at 0.08 µM in test [5]; 0.3 µM in test [6]; 0.295 µM in test [7]; 1.17 µM in test [8]; 3.55 µM in [9].
On to `COc1cc(Nc2ncnc3ccsc23)cc(N(C)C)c1` [Example 70, N-(3-Dimethylamino-5-methoxyphenyl)thieno[3,2-d]pyrimidin-4-amine hydrochloride], for which the EC50 worked out at 0.241 µM in test [1] (T-47D cells, 48 h, hydrochloride, read-out: Caspase activation Potency EC50 T-47D (48 h)); 0.238 µM in test [3] (48 h, hydrochloride); 0.433 µM in test [4] (48 h, hydrochloride); 0.399 µM in test [10]; 0.173 µM in test [11]; 0.204 µM in test [12]. Moreover, the EC50 in test [13] was found to be 0.153 µM.
